7 compounds from ChEMBL document CHEMBL1201862, “PubChem BioAssay data set” (2004) can be followed below.

Calls of active or inactive are those of the source.

The target in data set [1] is Dual specificity tyrosine-phosphorylation-regulated kinase 1A (Rattus norvegicus, UniProt Q63470). The class given is biochemical, Homo sapiens.
For data set [2], the target named is Dual specificity protein kinase CLK1 (Homo sapiens, UniProt P49759). Briefly: inhibition of human CLK1 activity – biochemical, cherry-picked samples, selectivity assay for Dyrk1A inhibitor project, dose response (AID 588811).
For data set [3], the target named is Cytochrome P450 2C19 (Homo sapiens, UniProt P33261). Kind of data set: Cytochrome panel assay with activity outcomes. Panel member name: p450-cyp2c19 Compounds with AC50 equal or less than 10 uM are considered active. The class given is functional.
In data set [4] the target is T1, Cytochrome P450 1A2 (Homo sapiens, UniProt P05177).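 Note: PubChem cytochrome P450 panel assay, CYP1A2 panel member.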
T1 sequence (P05177 whole entry): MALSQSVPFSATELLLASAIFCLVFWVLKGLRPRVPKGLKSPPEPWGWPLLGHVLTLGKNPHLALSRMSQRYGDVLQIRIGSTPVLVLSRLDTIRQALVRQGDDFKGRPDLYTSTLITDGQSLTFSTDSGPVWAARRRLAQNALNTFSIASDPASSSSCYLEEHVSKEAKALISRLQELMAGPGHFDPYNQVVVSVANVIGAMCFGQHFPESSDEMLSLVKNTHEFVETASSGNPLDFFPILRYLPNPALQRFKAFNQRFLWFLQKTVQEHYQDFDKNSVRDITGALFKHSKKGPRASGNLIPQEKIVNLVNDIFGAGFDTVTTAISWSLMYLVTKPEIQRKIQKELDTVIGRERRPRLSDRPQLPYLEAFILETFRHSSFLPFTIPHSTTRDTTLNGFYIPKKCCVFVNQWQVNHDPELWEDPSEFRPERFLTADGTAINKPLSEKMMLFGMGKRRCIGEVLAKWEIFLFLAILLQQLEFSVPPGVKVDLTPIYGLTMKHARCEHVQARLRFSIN

Data set [5] deals with Cytochrome P450 3A4 (Homo sapiens, UniProt P08684).
For data set [6], the target named is Cytochrome P450 2D6 (Homo sapiens, UniProt P10635).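 Note: CYP2D6 member of a cytochrome P450 panel assay.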
Data set [7] addresses T2, Galanin receptor type 3 (Homo sapiens, UniProt O60755).
T2 sequence (O60755 whole entry): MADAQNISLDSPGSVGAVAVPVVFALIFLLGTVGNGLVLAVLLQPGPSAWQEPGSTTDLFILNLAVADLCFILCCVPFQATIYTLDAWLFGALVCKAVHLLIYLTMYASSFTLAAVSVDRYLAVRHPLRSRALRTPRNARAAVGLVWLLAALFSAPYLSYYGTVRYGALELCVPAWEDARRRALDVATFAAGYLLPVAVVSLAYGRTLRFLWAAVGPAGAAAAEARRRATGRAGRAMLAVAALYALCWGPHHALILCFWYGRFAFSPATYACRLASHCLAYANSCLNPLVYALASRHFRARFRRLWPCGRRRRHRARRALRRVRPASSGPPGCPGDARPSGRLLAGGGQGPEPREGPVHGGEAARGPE
Briefly: Fluorescence-based cell-based primary high throughput dose response assay to identify antagonists of the Galanin Receptor 3 (GalR3). The class given is functional.

In data set [8] the test system is INS1. Briefly: INS-1E survival protection against cytokine death – cell-based, luminescence, retest, dose response (AID 449756).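 Note: cell death triggered by IL-1 beta plus TNF-alpha plus IFN-gamma mixture; protective hits raise ATP signal compared with cytokine alone wells.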 It counts as functional. To be noted: Rattus norvegicus.
Data set [9] is described as follows: reduction of Shn3 3'UTR-driven luciferase in osteoblasts – cell-based, Clone20 osteoblasts, firefly luciferase, cherry-picked, dose response (AID 624132).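 Note: firefly luciferase luminescence from reporter carrying the Shn3 3'UTR in osteoblasts.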 The class given is functional.
Data set [10] is described as follows: cells. It counts as functional, cell-based. The note with it: HEK-CNG.
A short description of data set [11]: non-specific 3'UTR reporter inhibition in Clone20-Shn3RL – cell-based, Renilla luciferase, cherry-picked, counter-screen for Shn3 inhibitor project, dose response (AID 624133). It counts as functional. Background: The purpose of a counterscreen is to sort out artefacts and off-target activity.
The nature of data set [12]: HEK-293T viability loss, compound-treated – cell-based, uHTS hits, cytotoxicity control for B/T-cell NF-kB inhibitor project, dose response (AID 489019).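 Note: IC50 reflects cytotoxicity as loss of cell viability.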 It counts as functional.
Data set [13] deals with Jurkat. Kind of data set: blockers of NF-kB activation in T cells – Jurkat, luciferase reporter, luminescence, B- and T-cell, dose response (AID 489004).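 Note: NF-kB luciferase reporter Jurkat cells stimulated with PMA plus ionomycin.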 The class given is functional, cell-based. The note with it: Homo sapiens.
The target of data set [14] is T3, COUP transcription factor 2 (Homo sapiens, UniProt P24468).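 Note: HEK293 cells transiently cotransfected with COUP-TFII expression vector and reporter; luciferase reporter luminescence driven by COUP-TFII from the pX2-168 reporter plasmid.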
T3 sequence (P24468 whole entry): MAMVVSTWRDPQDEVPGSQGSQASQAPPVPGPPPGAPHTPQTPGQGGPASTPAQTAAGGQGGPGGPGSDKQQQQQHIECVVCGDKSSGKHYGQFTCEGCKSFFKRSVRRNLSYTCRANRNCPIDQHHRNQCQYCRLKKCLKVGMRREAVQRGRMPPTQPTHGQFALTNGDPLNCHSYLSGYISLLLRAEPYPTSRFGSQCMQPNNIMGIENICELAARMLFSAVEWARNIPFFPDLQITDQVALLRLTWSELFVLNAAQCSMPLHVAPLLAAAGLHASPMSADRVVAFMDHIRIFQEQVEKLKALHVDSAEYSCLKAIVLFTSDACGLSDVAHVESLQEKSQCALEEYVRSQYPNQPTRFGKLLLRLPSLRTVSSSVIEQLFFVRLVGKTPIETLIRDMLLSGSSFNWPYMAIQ
Briefly: Luminescence-based cell-based high throughput dose response assay to identify inhibitors of COUP-TFII (NR2F2). It counts as functional.

A short description of data set [15]: loss of viability in HepG2 cells – cell-based, CellTiter-Glo, cherry-picked, cytotoxicity control for Shn3 inhibitor project, dose response (AID 624134). The class given is functional. On the technique in general: In ATP-based viability assays light output follows the ATP content of the culture.
Data set [16] addresses Peroxisome proliferator-activated receptor gamma/Nuclear receptor coactivator 1 (Homo sapiens, UniProt P37231). Briefly: TR-FRET dose response biochemical High Throughput Screening assay for agonists of the steroid receptor coactivator 1 (SRC-1) recruitment by the peroxisome proliferator-activated receptor gamma (PPAR gamma): non-selective agonists. [Related pubchem assays (depositor defined):AID1300, AID1808, AID504735, AID631]. It counts as protein assay. Background: Time-resolved FRET reads energy transfer from a long-lived donor to a nearby acceptor.

Data set [17] addresses Peroxisome proliferator-activated receptor gamma/Nuclear receptor coactivator 2 (Homo sapiens, UniProt P37231). Kind of data set: TR-FRET dose response biochemical High Throughput Screening assay for agonists of the steroid receptor coactivator 2 (SRC-2) recruitment by the peroxisome proliferator-activated receptor gamma (PPAR gamma): non-selective agonists. [Related pubchem assays: 1297, 1032 ]. The class given is functional.

In data set [18] the target is 5-hydroxytryptamine receptor 2A (Mus musculus, UniProt P35363). The class given is functional, cell-based.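 Note: CHO-K1 cells with tagged receptor and beta-arrestin; agonist potency measured as compound-induced activation of the receptor.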
Data set [19] has as its target Peroxisome proliferator-activated receptor gamma/Nuclear receptor coactivator 3 (Homo sapiens, UniProt P37231). Kind of data set: TR-FRET dose response biochemical High Throughput Screening assay for agonists of the steroid receptor coactivator 3 (SRC-3) recruitment by the peroxisome proliferator-activated receptor gamma (PPAR gamma): non-selective agonists. [Related pubchem assays: 1301 (Confirmation screen.), 1048 (Primary screen.)]. The class given is functional.

The target of data set [20] is Mu-type opioid receptor (Homo sapiens, UniProt P35372). It counts as functional, cell-based.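 Note: U2OS cells with beta-arrestin recruitment to OPRM1 by beta-gal complementation.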
The target of data set [21] is T4, Ubiquitin-conjugating enzyme E2 N (Homo sapiens, UniProt P61088).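 Note: Dose-response confirmation in a TR-FRET assay detecting UBC13-driven polyubiquitin chain formation, inhibition measured.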
T4 sequence (P61088 whole entry): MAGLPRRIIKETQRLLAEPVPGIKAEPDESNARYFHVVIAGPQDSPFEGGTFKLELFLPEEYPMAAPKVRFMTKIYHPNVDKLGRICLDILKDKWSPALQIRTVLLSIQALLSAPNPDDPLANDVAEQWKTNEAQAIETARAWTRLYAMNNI
The class given is functional.

Data set [22] deals with BJ. Briefly: BJ-TERT-LT-ST fibroblast viability loss – cell-based, RAS-independent, luminescence, dose response (AID 1935).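 Note: BJ fibroblasts immortalized with TERT plus LT and ST oncogenes.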 The class given is functional. The note with it: Homo sapiens.
The subject of data set [23] is BJ. Briefly: growth inhibition of engineered Ras-driven BJ cells – cell-based, alamar blue fluorescence, cherrypicked samples, dose response (AID 2631).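 Note: confirmatory dose-response assay in RAS-dependent BJ fibroblasts engineered with TERT, LT and ST, with cytotoxicity read by fluorescence.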 The class given is functional. The note with it: Homo sapiens.
The subject of data set [24] is BJ. Kind of data set: BJ-TERT fibroblast viability loss – cell-based, RAS-independent, luminescence, dose response (AID 1933). It counts as functional. To be noted: Homo sapiens.
The target of data set [25] is Beta-2 adrenergic receptor (Homo sapiens, UniProt P07550). Briefly: ADRB2 activation measured by internalization – cell-based, FAP fluorogen, flow cytometry, cherry pick 1, dose response (AID 588763). The class given is functional.
In data set [26] the test system is BJ. Kind of data set: cells. It counts as functional, cell-based. To be noted: Homo sapiens.
Data set [27] is described as follows: DRD fibroblast viability loss – cell-based, non-viral oncogenic, luminescence, dose response (AID 1934). The class given is functional. The note with it: Homo sapiens.
Data set [28] has as its target Phosphomannomutase 2 (Homo sapiens, UniProt O15305). Kind of data set: Counter screen SAR assay for PMM2 inhibitors via a fluorescence intensity assay. [Related pubchem assays (depositor defined):AID1545, AID1574].
For data set [29], the target named is T5, Mannose-6-phosphate isomerase (Homo sapiens, UniProt P34949).
T5 sequence (P34949 whole entry): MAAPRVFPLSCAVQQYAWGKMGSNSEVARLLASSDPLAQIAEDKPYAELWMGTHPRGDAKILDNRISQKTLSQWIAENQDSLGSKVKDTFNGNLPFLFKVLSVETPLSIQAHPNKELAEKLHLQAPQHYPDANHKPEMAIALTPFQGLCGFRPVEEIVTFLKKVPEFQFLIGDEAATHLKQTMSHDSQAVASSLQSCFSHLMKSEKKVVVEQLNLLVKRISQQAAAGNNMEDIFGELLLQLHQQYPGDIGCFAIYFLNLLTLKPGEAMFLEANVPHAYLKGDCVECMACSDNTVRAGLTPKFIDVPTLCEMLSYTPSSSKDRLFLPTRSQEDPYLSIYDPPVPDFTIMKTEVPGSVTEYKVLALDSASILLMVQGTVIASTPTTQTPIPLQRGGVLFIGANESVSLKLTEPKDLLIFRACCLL
Briefly: phosphomannose isomerase inhibition – biochemical, fluorescence intensity, confirmation (AID 1535).

Sequence of Beta-2 adrenergic receptor (P07550 whole entry): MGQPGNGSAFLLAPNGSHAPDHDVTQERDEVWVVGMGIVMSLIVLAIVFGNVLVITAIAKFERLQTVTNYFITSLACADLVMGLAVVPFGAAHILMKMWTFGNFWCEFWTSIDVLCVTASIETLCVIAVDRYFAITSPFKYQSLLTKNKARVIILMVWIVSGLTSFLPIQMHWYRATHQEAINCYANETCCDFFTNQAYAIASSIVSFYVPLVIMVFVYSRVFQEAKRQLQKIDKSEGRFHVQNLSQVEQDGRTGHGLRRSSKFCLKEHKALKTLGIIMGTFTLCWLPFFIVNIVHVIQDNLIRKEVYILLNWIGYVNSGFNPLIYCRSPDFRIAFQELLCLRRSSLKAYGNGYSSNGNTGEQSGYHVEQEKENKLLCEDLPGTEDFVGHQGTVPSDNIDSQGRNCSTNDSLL
Sequence of Mu-type opioid receptor (P35372 whole entry): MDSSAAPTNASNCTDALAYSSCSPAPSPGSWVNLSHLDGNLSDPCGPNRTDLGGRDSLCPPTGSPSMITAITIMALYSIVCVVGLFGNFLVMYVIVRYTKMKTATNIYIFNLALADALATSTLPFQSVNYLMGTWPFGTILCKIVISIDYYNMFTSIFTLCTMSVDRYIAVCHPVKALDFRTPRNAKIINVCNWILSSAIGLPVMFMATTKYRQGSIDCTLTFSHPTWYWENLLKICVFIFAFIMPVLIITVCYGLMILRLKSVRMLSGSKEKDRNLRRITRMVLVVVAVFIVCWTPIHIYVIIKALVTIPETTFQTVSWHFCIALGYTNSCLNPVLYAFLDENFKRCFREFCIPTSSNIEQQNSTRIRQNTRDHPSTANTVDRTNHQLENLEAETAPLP
Sequence of Dual specificity protein kinase CLK1 (P49759 whole entry): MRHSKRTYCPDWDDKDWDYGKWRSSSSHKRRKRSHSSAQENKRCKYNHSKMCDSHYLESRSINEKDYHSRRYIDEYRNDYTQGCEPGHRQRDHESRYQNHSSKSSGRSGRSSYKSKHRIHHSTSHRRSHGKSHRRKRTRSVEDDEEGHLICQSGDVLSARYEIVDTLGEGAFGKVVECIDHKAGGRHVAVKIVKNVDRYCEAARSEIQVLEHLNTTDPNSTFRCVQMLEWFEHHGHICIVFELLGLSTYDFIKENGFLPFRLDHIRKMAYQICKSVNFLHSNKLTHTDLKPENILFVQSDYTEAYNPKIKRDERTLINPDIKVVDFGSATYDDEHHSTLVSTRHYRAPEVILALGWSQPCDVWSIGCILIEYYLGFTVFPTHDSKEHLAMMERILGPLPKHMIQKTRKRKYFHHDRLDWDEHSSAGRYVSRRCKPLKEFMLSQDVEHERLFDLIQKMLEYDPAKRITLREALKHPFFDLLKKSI
Sequence of Cytochrome P450 2D6 (P10635 whole entry): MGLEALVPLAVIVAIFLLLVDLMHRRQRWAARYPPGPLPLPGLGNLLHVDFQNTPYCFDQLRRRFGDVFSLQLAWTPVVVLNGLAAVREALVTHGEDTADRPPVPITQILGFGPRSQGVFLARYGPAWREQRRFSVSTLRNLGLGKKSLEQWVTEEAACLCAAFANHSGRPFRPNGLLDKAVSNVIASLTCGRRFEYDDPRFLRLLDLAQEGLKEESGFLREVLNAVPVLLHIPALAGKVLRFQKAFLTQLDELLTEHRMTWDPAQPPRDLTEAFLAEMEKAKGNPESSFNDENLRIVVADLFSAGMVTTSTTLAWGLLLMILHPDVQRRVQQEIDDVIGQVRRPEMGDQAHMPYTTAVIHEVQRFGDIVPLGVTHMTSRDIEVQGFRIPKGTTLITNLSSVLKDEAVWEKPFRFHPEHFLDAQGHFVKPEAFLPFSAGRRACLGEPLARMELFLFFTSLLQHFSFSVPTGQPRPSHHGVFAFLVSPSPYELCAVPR
Sequence of Peroxisome proliferator-activated receptor gamma/Nuclear receptor coactivator 2 (P37231 whole entry): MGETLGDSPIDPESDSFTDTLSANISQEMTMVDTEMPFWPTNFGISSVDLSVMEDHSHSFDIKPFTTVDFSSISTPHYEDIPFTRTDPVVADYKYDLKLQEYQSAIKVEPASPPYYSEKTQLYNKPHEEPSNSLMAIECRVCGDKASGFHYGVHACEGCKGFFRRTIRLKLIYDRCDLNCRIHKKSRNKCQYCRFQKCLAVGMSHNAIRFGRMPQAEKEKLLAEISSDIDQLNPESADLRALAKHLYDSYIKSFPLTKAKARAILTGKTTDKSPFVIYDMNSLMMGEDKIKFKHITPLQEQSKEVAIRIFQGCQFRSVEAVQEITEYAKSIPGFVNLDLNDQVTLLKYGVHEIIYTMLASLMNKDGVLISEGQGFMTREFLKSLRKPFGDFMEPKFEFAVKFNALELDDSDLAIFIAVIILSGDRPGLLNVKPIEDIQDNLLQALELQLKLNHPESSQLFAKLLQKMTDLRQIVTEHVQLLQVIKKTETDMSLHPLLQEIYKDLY
Sequence of Peroxisome proliferator-activated receptor gamma/Nuclear receptor coactivator 2 (Q15596 whole entry, further chain): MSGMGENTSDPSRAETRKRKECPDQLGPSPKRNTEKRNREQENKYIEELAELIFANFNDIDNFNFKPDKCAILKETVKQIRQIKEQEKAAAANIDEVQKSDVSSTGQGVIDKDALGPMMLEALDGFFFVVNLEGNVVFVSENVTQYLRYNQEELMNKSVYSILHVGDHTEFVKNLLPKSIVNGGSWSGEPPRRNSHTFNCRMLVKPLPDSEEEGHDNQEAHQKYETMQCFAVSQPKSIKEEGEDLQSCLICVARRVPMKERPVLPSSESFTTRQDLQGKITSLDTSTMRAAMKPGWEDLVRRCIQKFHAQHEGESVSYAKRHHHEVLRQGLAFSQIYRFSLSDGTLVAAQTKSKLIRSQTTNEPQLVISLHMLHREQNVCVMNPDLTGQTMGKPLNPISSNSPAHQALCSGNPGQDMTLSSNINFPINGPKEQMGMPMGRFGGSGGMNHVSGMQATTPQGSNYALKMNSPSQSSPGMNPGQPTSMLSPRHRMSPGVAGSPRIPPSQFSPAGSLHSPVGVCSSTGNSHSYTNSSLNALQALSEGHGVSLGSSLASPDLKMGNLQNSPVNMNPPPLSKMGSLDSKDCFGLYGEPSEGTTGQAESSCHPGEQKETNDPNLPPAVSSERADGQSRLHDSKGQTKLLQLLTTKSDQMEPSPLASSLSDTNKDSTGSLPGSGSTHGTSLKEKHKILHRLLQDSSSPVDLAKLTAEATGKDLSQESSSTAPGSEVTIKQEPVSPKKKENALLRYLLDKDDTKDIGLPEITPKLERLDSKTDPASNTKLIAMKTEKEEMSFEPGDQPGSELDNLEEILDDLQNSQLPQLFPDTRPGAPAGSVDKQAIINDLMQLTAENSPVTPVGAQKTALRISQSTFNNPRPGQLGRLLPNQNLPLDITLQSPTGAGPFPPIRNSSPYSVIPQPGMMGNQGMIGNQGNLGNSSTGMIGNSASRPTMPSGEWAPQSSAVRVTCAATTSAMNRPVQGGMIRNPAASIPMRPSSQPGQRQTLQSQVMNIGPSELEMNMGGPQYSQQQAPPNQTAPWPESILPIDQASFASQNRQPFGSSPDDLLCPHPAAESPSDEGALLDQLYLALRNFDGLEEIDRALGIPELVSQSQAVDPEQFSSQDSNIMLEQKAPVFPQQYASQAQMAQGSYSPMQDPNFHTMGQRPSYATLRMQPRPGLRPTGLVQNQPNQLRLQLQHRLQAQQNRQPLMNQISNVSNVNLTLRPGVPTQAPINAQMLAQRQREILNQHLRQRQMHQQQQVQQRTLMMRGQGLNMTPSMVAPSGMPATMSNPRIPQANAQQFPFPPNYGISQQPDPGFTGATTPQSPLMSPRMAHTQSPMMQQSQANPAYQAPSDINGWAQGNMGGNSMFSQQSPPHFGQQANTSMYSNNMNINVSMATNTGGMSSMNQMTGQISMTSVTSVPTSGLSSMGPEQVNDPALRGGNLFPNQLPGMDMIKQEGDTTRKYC
Sequence of Cytochrome P450 3A4 (P08684 whole entry): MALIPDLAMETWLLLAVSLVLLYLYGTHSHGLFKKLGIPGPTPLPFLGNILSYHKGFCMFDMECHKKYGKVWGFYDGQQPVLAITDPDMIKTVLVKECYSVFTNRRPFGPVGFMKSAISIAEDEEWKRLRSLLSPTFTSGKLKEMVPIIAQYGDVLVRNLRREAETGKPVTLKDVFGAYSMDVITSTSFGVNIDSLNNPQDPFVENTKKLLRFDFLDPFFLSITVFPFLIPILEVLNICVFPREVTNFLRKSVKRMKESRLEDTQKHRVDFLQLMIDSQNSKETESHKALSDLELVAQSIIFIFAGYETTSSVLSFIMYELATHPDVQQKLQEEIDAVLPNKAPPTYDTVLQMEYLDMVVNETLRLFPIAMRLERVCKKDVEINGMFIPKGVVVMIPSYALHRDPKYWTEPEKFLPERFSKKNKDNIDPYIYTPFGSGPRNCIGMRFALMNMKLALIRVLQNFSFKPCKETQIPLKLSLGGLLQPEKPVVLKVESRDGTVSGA
Sequence of 5-hydroxytryptamine receptor 2A (P35363 whole entry): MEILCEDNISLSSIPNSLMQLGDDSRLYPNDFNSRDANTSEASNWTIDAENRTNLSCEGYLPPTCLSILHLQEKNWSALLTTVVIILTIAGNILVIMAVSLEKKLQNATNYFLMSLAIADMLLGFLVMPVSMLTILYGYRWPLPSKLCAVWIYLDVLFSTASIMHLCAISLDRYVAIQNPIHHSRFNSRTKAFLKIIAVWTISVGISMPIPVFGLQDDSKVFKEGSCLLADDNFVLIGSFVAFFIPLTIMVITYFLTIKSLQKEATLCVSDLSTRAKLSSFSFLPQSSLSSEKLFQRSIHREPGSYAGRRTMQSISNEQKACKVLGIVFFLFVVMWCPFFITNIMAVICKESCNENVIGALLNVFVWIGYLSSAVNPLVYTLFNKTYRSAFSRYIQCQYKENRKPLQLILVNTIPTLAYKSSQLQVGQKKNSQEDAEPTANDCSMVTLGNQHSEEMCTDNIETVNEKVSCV
Sequence of Phosphomannomutase 2 (O15305 whole entry): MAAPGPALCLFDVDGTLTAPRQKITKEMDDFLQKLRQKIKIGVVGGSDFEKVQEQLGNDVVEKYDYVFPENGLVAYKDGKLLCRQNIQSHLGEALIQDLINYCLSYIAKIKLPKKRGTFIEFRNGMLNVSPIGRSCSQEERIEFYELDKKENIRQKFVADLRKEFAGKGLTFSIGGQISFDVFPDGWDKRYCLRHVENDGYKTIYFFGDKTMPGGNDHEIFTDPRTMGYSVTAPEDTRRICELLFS

As for `O=C(COc1ccccc1)Nc1cccc(-c2cn3cccnc3n2)c1`, the figures for the AC50 in [1] and in data set [2] were 3.85 µM (active) and 10.4 µM (active), respectively.
For the compound `O=C([O-])Cc1ccccc1Nc1c(Cl)cccc1Cl.[Na+]` [DICLOFENAC SODIUM], the AC50 (as a rule, the midpoint of the concentration-response curve, whichever way the signal moves) in data set [3] was “inactive”; in [4], “inactive”; in data set [5], “inconclusive”; in [6], “inactive”.
As for `COc1ccc(C(=O)N2CCC3(CCCN(C(=O)NC(C)C)C3)CC2)cc1`, the AC50 result in [4] was “inactive”.
With `CCOc1cc(S(=O)(=O)NCc2ccncc2)ccc1Cl`, the IC50 (commonly the concentration that inhibits the measured activity by half) is 0.581 µM (active) in data set [7], > 80 µM (inactive) in data set [12], > 80 µM (inactive) in [13] and 2.29 µM (active) in data set [14]. The AC50 was 0.848 µM (active) in data set [8], < 0.26 µM (active) in data set [9], < 0.26 µM (active) in data set [11] and 0.45 µM (active) in data set [15]. In addition, the EC50 (as a rule, the concentration that produces a half-maximal response) in [10] is > 29.9 µM (inactive).
Regarding `CCn1c(=O)cc(SCC(=O)NCCCN2CCN(c3ccccc3F)CC2)c2ccccc21`, the EC50 was > 79.4 µM (inactive) in [16]; > 79.4 µM (not active) in data set [17]; 0.0169 µM (active) in data set [18]; > 79.4 µM (not active) in [19]; 92.6 µM (inactive) in data set [20]. In addition, the IC50 in [21] is > 20 µM (inactive).
Regarding `CC1CCCN(c2ccc([N+](=O)[O-])cc2C(=O)c2ccccc2)C1` (configuration not stated), the EC50 in data set [22] was 0.657 µM (inconclusive); in data set [23] it was 0.314 µM (active); in data set [24], 1.27 µM (active); in data set [25] it was 12.2 µM (inactive); in [26], 1.32 µM (active); in data set [27], 1.29 µM (active). Moreover, the IC50 in data set [12] is > 80 µM (inactive); in data set [13], 40.6 µM (inactive).
Consider `Cc1ccc(/N=c2\ssnc2Cl)nc1`, for which the IC50 in [28] and in data set [29] was > 100 µM (inactive) in each case.
